Marks after values point to notes of the source that are not given here.
What was measured:
db/db mice = test: Metabolomics study: metabolite profiling of liver, muscle, adipose tissue and plasma of treated db/db mice; type: in vivo, mouse
Method: Maledb/db mice (8 weeks) were orally gavaged once daily with either vehicle or 10 mg/kg compound 309. Liver, muscle, adipose tissue, and plasma from treated mice (n=6/treatment group) were collected 30 minutes after dosing both on day 3 of treatment. Frozen tissue and plasma samples were sent to Metabolon for unbiased metabolite analysis [(Durham, N.C.) See, Evans A, DeHaven C, Barrett T, Mitchell M, Milgram E (2009)—Integrated, nontargeted ultrahigh performance liquid chromatography/electrospray ionization tandem mass spectrometry platform for the identification and relative quantification of the small-molecule complement of biological systems. Anal Chem 81: 6656-6667. Lawton K, Berger A, Mitchell M, Milgram K, Evans A, et al. (2008)—Analysis of the adult human plasma metabolome. Pharmacogenomics 9: 383-397. Reitman Z J, Jin G, Karoly E D, Spasojevic I, Yang J, et al. (2011) Profiling the effects of isocitrate dehydrogenase 1 and 2 mutations on the cellular metabolome. PNAS 108: […].] Biochemical data were analyzed using Welch's two-sample t-tests.
Metabolite profiling of tissues from db/db mice orally dosed with either vehicle or 10 mg/kg compound 309 was used to characterize in detail the effects of the present AMPK activators on nutrient pathways in a commonly used mouse model of type 2 diabetes. […] Since AMPK activation results in both acute and chronic changes to metabolic pathways, samples from non-fasted mice treated for three days with compound 309 were analyzed. Samples were collected thirty minutes after compound dosing when compound 309 plasma levels as well as tissue AMPK activation were maximal.

AMPK = AMPK activation in liver and muscle lysates after a single oral administration; type: in vivo, mouse; conditions: normal C57BL/6J mice, single oral administration of 10 mg/kg
[1] = Adipose, 10 mg/kg oral once daily, day 3, 30 min after dosing
[2] = Liver, 10 mg/kg oral once daily, day 3, 30 min after dosing
[3] = Muscle, 10 mg/kg oral once daily, day 3, 30 min after dosing
[4] = Plasma, 10 mg/kg oral once daily, day 3, 30 min after dosing

SMILES: COc1ccc(C(=O)C2CCN(C(=O)c3ccc(C(=O)NC4CCN(Cc5ccc(C#N)cc5)CC4)cn3)CC2)cc1 [Compound 309, N-(1-(4-cyanobenzyl)piperidin-4-yl)-6-(4-(4-methoxybenzoyl)piperidine-1-carbonyl)nicotinamide]
- relative levels of the other amino acids (db/db mice; 10 mg/kg): not similarly affected
- 2-methylbutyrlcarnitine (C5) Ratio (Compound 309/Vehicle) (db/db mice; [1]): 0.57^††
- 3-hydroxybutyrate (BHBA) Ratio (Compound 309/Vehicle) (db/db mice; [1]): 1.68**
- 3-hydroxyisobutyrate Ratio (Compound 309/Vehicle) (db/db mice; [1]): 1.13
- 3-methyl-2-oxobutyrate Ratio (Compound 309/Vehicle) (db/db mice; [1]): 1
- 3-methyl-2-oxovalerate Ratio (Compound 309/Vehicle) (db/db mice; [1]): 1.31**
- 4-methyl-2-oxopentanoate Ratio (Compound 309/Vehicle) (db/db mice; [1]): 1.23
- alanine Ratio (Compound 309/Vehicle) (db/db mice; [1]): 1
- arginine Ratio (Compound 309/Vehicle) (db/db mice; [1]): 0.86^††
- asparagine Ratio (Compound 309/Vehicle) (db/db mice; [1]): 0.84
- aspartate Ratio (Compound 309/Vehicle) (db/db mice; [1]): 0.72^††
- butyrylcarnitine Ratio (Compound 309/Vehicle) (db/db mice; [1]): 0.82
- cysteine Ratio (Compound 309/Vehicle) (db/db mice; [1]): 0.62^†
- glutamate Ratio (Compound 309/Vehicle) (db/db mice; [1]): 0.89
- glutamine Ratio (Compound 309/Vehicle) (db/db mice; [1]): 0.95
- glycine Ratio (Compound 309/Vehicle) (db/db mice; [1]): 0.81
- hydroxybutyrylcarnitine Ratio (Compound 309/Vehicle) (db/db mice; [1]): 1.7**
- hydroxylisovaleroyl carnitine Ratio (Compound 309/Vehicle) (db/db mice; [1]): 0.86
- isobutyrylcarnitine Ratio (Compound 309/Vehicle) (db/db mice; [1]): 0.57^††
- isoleucine Ratio (Compound 309/Vehicle) (db/db mice; [1]): 0.73
- isovalerylcarnitine Ratio (Compound 309/Vehicle) (db/db mice; [1]): 0.58^††
- leucine Ratio (Compound 309/Vehicle) (db/db mice; [1]): 0.78
- lysine Ratio (Compound 309/Vehicle) (db/db mice; [1]): 0.74
- methionine Ratio (Compound 309/Vehicle) (db/db mice; [1]): 0.87
- phenylalanine Ratio (Compound 309/Vehicle) (db/db mice; [1]): 0.82
- proline Ratio (Compound 309/Vehicle) (db/db mice; [1]): 0.86
- propionylcarnitine Ratio (Compound 309/Vehicle) (db/db mice; [1]): 0.77
- serine Ratio (Compound 309/Vehicle) (db/db mice; [1]): 0.85
- threonine Ratio (Compound 309/Vehicle) (db/db mice; [1]): 0.77^†
- tryptophan Ratio (Compound 309/Vehicle) (db/db mice; [1]): 0.9
- tyrosine Ratio (Compound 309/Vehicle) (db/db mice; [1]): 0.85
- valine Ratio (Compound 309/Vehicle) (db/db mice; [1]): 0.81
- 2-methylbutyrlcarnitine (C5) Ratio (Compound 309/Vehicle) (db/db mice; [2]): 0.76
- 3-hydroxybutyrate (BHBA) Ratio (Compound 309/Vehicle) (db/db mice; [2]): 1.15
- 3-methylglutaryl carnitine (C6) Ratio (Compound 309/Vehicle) (db/db mice; [2]): 0.57^††
- N-acetylleucine Ratio (Compound 309/Vehicle) (db/db mice; [2]): 0.94
- alanine Ratio (Compound 309/Vehicle) (db/db mice; [2]): 1.4**
- alpha-hydroxyisovalerate Ratio (Compound 309/Vehicle) (db/db mice; [2]): 0.86
- arginine Ratio (Compound 309/Vehicle) (db/db mice; [2]): 1.67
- aspartate Ratio (Compound 309/Vehicle) (db/db mice; [2]): 1.59**
- butyrylglycine Ratio (Compound 309/Vehicle) (db/db mice; [2]): 0.41^††
- cysteine Ratio (Compound 309/Vehicle) (db/db mice; [2]): 0.97
- glutamate Ratio (Compound 309/Vehicle) (db/db mice; [2]): 1.61**
- glutamine Ratio (Compound 309/Vehicle) (db/db mice; [2]): 1.04
- glycine Ratio (Compound 309/Vehicle) (db/db mice; [2]): 0.96
- histidine Ratio (Compound 309/Vehicle) (db/db mice; [2]): 1.16*
- hydroxybutyrylcarnitine Ratio (Compound 309/Vehicle) (db/db mice; [2]): 1.45**
- hydroxylisovaleroyl carnitine Ratio (Compound 309/Vehicle) (db/db mice; [2]): 1
- isoleucine Ratio (Compound 309/Vehicle) (db/db mice; [2]): 0.86^††
- isovalerylcarnitine Ratio (Compound 309/Vehicle) (db/db mice; [2]): 0.54^††
- leucine Ratio (Compound 309/Vehicle) (db/db mice; [2]): 0.94
- lysine Ratio (Compound 309/Vehicle) (db/db mice; [2]): 1.11*
- methionine Ratio (Compound 309/Vehicle) (db/db mice; [2]): 1.03
- phenylalanine Ratio (Compound 309/Vehicle) (db/db mice; [2]): 0.96
- proline Ratio (Compound 309/Vehicle) (db/db mice; [2]): 0.94
- propionylcarnitine Ratio (Compound 309/Vehicle) (db/db mice; [2]): 0.73
- serine Ratio (Compound 309/Vehicle) (db/db mice; [2]): 1.19
- threonine Ratio (Compound 309/Vehicle) (db/db mice; [2]): 0.94
- tryptophan Ratio (Compound 309/Vehicle) (db/db mice; [2]): 0.99
- tyrosine Ratio (Compound 309/Vehicle) (db/db mice; [2]): 1.08
- valine Ratio (Compound 309/Vehicle) (db/db mice; [2]): 0.87^††
- 2-methylbutyrlcarnitine (C5) Ratio (Compound 309/Vehicle) (db/db mice; [3]): 0.63^††
- 3-hydroxybutyrate (BHBA) Ratio (Compound 309/Vehicle) (db/db mice; [3]): 2.2**
- 3-hydroxyisobutyrate Ratio (Compound 309/Vehicle) (db/db mice; [3]): 1.33*
- 3-methyl-2-oxovalerate Ratio (Compound 309/Vehicle) (db/db mice; [3]): 0.78
- 4-methyl-2-oxopentanoate Ratio (Compound 309/Vehicle) (db/db mice; [3]): 0.96
- alanine Ratio (Compound 309/Vehicle) (db/db mice; [3]): 0.96
- alpha-hydroxyisovalerate Ratio (Compound 309/Vehicle) (db/db mice; [3]): 0.85
- arginine Ratio (Compound 309/Vehicle) (db/db mice; [3]): 0.71
- aspartate Ratio (Compound 309/Vehicle) (db/db mice; [3]): 0.82
- butyrylcarnitine Ratio (Compound 309/Vehicle) (db/db mice; [3]): 0.62
- butyrylglycine Ratio (Compound 309/Vehicle) (db/db mice; [3]): 1.07
- glutamate Ratio (Compound 309/Vehicle) (db/db mice; [3]): 1.15
- glutamine Ratio (Compound 309/Vehicle) (db/db mice; [3]): 1.04
- glycine Ratio (Compound 309/Vehicle) (db/db mice; [3]): 0.96
- histidine Ratio (Compound 309/Vehicle) (db/db mice; [3]): 1
- hydroxybutyrylcarnitine Ratio (Compound 309/Vehicle) (db/db mice; [3]): 1.34*
- hydroxylisovaleroyl carnitine Ratio (Compound 309/Vehicle) (db/db mice; [3]): 0.86^†
- isobutyrylcarnitine Ratio (Compound 309/Vehicle) (db/db mice; [3]): 0.64^††
- isoleucine Ratio (Compound 309/Vehicle) (db/db mice; [3]): 0.81^††
- isovalerylcarnitine Ratio (Compound 309/Vehicle) (db/db mice; [3]): 0.58^††
- leucine Ratio (Compound 309/Vehicle) (db/db mice; [3]): 0.83^†
- lysine Ratio (Compound 309/Vehicle) (db/db mice; [3]): 0.96
- methionine Ratio (Compound 309/Vehicle) (db/db mice; [3]): 0.78^†
- phenylalanine Ratio (Compound 309/Vehicle) (db/db mice; [3]): 0.91
- proline Ratio (Compound 309/Vehicle) (db/db mice; [3]): 0.92
- propionylcarnitine Ratio (Compound 309/Vehicle) (db/db mice; [3]): 0.87^†
- serine Ratio (Compound 309/Vehicle) (db/db mice; [3]): 0.89
- threonine Ratio (Compound 309/Vehicle) (db/db mice; [3]): 0.89
- tiglyl carnitine Ratio (Compound 309/Vehicle) (db/db mice; [3]): 0.98
- tryptophan Ratio (Compound 309/Vehicle) (db/db mice; [3]): 0.95
- tyrosine Ratio (Compound 309/Vehicle) (db/db mice; [3]): 0.96
- valine Ratio (Compound 309/Vehicle) (db/db mice; [3]): 0.77^††
- 2-hydroxy-3-methylvalerate Ratio (Compound 309/Vehicle) (db/db mice; [4]): 0.91
- 2-methylbutyrlcarnitine (C5) Ratio (Compound 309/Vehicle) (db/db mice; [4]): 0.56^††
- 3-hydroxybutyrate (BHBA) Ratio (Compound 309/Vehicle) (db/db mice; [4]): 1.93**
- 3-hydroxyisobutyrate Ratio (Compound 309/Vehicle) (db/db mice; [4]): 1.69**
- 3-methyl-2-oxobutyrate Ratio (Compound 309/Vehicle) (db/db mice; [4]): 1.17
- 3-methyl-2-oxovalerate Ratio (Compound 309/Vehicle) (db/db mice; [4]): 1.06
- 3-methylglutaryl carnitine (C6) Ratio (Compound 309/Vehicle) (db/db mice; [4]): 0.55^††
- 4-methyl-2-oxopentanoate Ratio (Compound 309/Vehicle) (db/db mice; [4]): 1.05
- N-acetylisoleucisne Ratio (Compound 309/Vehicle) (db/db mice; [4]): 1.11
- N-acetylleucine Ratio (Compound 309/Vehicle) (db/db mice; [4]): 0.96
- alanine Ratio (Compound 309/Vehicle) (db/db mice; [4]): 1.22
- alpha-hydroxyisocaproate Ratio (Compound 309/Vehicle) (db/db mice; [4]): 0.91
- alpha-hydroxyisovalerate Ratio (Compound 309/Vehicle) (db/db mice; [4]): 0.91
- arginine Ratio (Compound 309/Vehicle) (db/db mice; [4]): 0.95
- asparagine Ratio (Compound 309/Vehicle) (db/db mice; [4]): 0.89
- butyrylcarnitine Ratio (Compound 309/Vehicle) (db/db mice; [4]): 0.65^†
- butyrylglycine Ratio (Compound 309/Vehicle) (db/db mice; [4]): 0.41^††
- cysteine Ratio (Compound 309/Vehicle) (db/db mice; [4]): 0.94
- glutamate Ratio (Compound 309/Vehicle) (db/db mice; [4]): 1.22*
- glutamine Ratio (Compound 309/Vehicle) (db/db mice; [4]): 1.03
- glycine Ratio (Compound 309/Vehicle) (db/db mice; [4]): 1.03
- histidine Ratio (Compound 309/Vehicle) (db/db mice; [4]): 0.99
- hydroxybutyrylcarnitine Ratio (Compound 309/Vehicle) (db/db mice; [4]): 2.28**
- isobutyrylcarnitine Ratio (Compound 309/Vehicle) (db/db mice; [4]): 0.41^††
- isoleucine Ratio (Compound 309/Vehicle) (db/db mice; [4]): 0.75^††
- isovalerylcarnitine Ratio (Compound 309/Vehicle) (db/db mice; [4]): 0.45^††
- isovalerylglycine Ratio (Compound 309/Vehicle) (db/db mice; [4]): 0.67^††
- leucine Ratio (Compound 309/Vehicle) (db/db mice; [4]): 0.75^†
- lysine Ratio (Compound 309/Vehicle) (db/db mice; [4]): 0.91
- methionine Ratio (Compound 309/Vehicle) (db/db mice; [4]): 0.88
- phenylalanine Ratio (Compound 309/Vehicle) (db/db mice; [4]): 0.87
- proline Ratio (Compound 309/Vehicle) (db/db mice; [4]): 0.96
- propionylcarnitine Ratio (Compound 309/Vehicle) (db/db mice; [4]): 1.07
- serine Ratio (Compound 309/Vehicle) (db/db mice; [4]): 0.83^†
- threonine Ratio (Compound 309/Vehicle) (db/db mice; [4]): 0.9
- tigloylglycine Ratio (Compound 309/Vehicle) (db/db mice; [4]): 0.96
- tryptophan Ratio (Compound 309/Vehicle) (db/db mice; [4]): 1.02
- tyrosine Ratio (Compound 309/Vehicle) (db/db mice; [4]): 1.11
- valine Ratio (Compound 309/Vehicle) (db/db mice; [4]): 0.91
- hydroxybutyrylcarnitine levels (db/db mice; all compartments sampled, 10 mg/kg): similarly increased
- intermediates of the catabolic pathways of all three BCAA (db/db mice; all three major metabolic organs and plasma, 10 mg/kg): Marked reductions
- effects on glucose metabolic pathways in global metabolite profiling (db/db mice; data not shown): no dramatic effects
- relative levels of butyrylglycine and butyrylcarnitine (db/db mice; liver and plasma, 10 mg/kg): reduction
- BHBA level vs vehicle (db/db mice; liver, 10 mg/kg oral once daily, day 3): no difference
- 3-hydroxybutyrate (BHBA) level vs vehicle (db/db mice; muscle, fat and plasma, 10 mg/kg oral once daily, day 3): significant elevation
- AMPK activation in liver and muscle lysates (AMPK): robust AMPK activation
